Measured values published in PubChem BioAssay AID1845209 (Molecular Pharmacology Branch, DTP, NCI, 2023).

Tested on: NCI-H211 tumor spheroids, viability percent test/control
Experiment: Anticancer human tumor NCI-H211 cell line growth inhibition;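 also: spheroids exposed to agents for seven days before readout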
Settings: spheroids with HUVEC and MSC; for IC50: curve of first compound; for viability, T/C: stronger effect = lower value
Outline: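 Complex tumor spheroids combined malignant cells with endothelial cells and mesenchymal stem cells. DNA-damaging drugs and DNA repair inhibitors were tested alone and in combination, at half-log dilutions down from clinical Cmax (top 10 microM if Cmax unknown), 0.25% DMSO final.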

[1] = second compound 30 pM, first compound 0.0316 µM
[2] = second compound 30 pM, first compound 0.1 µM
[3] = second compound 30 pM, first compound 0.316 µM
[4] = second compound 30 pM, first compound 1 µM
[5] = second compound 30 pM, first compound 3.16 µM
[6] = second compound 30 pM, first compound 10 µM
[7] = second compound 94.9 pM, first compound 0.0316 µM
[8] = second compound 94.9 pM, first compound 0.1 µM
[9] = second compound 94.9 pM, first compound 0.316 µM
[10] = second compound 94.9 pM, first compound 1 µM
[11] = second compound 94.9 pM, first compound 3.16 µM
[12] = second compound 94.9 pM, first compound 10 µM
[13] = second compound 0.0003 µM, first compound 0.0316 µM
[14] = second compound 0.0003 µM, first compound 0.1 µM
[15] = second compound 0.0003 µM, first compound 0.316 µM
[16] = second compound 0.0003 µM, first compound 1 µM
[17] = second compound 0.0003 µM, first compound 3.16 µM
[18] = second compound 0.0003 µM, first compound 10 µM
[19] = second compound 0.000949 µM, first compound 0.0316 µM
[20] = second compound 0.000949 µM, first compound 0.1 µM
[21] = second compound 0.000949 µM, first compound 0.316 µM
[22] = second compound 0.000949 µM, first compound 1 µM
[23] = second compound 0.000949 µM, first compound 3.16 µM
[24] = second compound 0.000949 µM, first compound 10 µM
[25] = second compound 0.003 µM, first compound 0.0316 µM
[26] = second compound 0.003 µM, first compound 0.1 µM
[27] = second compound 0.003 µM, first compound 0.316 µM
[28] = second compound 0.003 µM, first compound 1 µM
[29] = second compound 0.003 µM, first compound 3.16 µM
[30] = second compound 0.003 µM, first compound 10 µM

Structure (SMILES): CC(C)n1c(=O)n(C)c2cnc3cc(F)c(-c4ccc(OCCCN5CCCCC5)nc4)cc3c21 + COc1cc2c(cc1O)CCNC21CSC2c3c(OC(C)=O)c(C)c4c(c3C(COC1=O)N1C(O)C3Cc5cc(C)c(OC)c(O)c5C(C21)N3C)OCO4
- IC50 (second compound 30 pM): < 31.6 nM
- IC50 (second compound 94.9 pM): < 31.6 nM
- IC50 (second compound 0.0003 µM): < 31.6 nM
- IC50 (second compound 0.000949 µM): < 31.6 nM
- IC50 (second compound 0.003 µM): < 31.6 nM
- viability, T/C [1]: 27%
- viability, T/C [2]: 15.3%
- viability, T/C [3]: 15.5%
- viability, T/C [4]: 12.7%
- viability, T/C [5]: 9.25%
- viability, T/C [6]: 0.77%
- viability, T/C [7]: 0.99%
- viability, T/C [8]: 0.88%
- viability, T/C [9]: 1.06%
- viability, T/C [10]: 0.96%
- viability, T/C [11]: 0.8%
- viability, T/C [12]: 0.42%
- viability, T/C [13]: 0.68%
- viability, T/C [14]: 0.74%
- viability, T/C [15]: 0.77%
- viability, T/C [16]: 1.03%
- viability, T/C [17]: 0.82%
- viability, T/C [18]: 0.31%
- viability, T/C [19]: 0.69%
- viability, T/C [20]: 0.69%
- viability, T/C [21]: 0.71%
- viability, T/C [22]: 0.72%
- viability, T/C [23]: 0.7%
- viability, T/C [24]: 0.5%
- viability, T/C [25]: 0.12%
- viability, T/C [26]: 0.17%
- viability, T/C [27]: 0.11%
- viability, T/C [28]: 0.1%
- viability, T/C [29]: 0.12%
- viability, T/C [30]: 0.16%

Structure (SMILES): CC1COCCN1c1cc(-c2ccnn2C)c2ccnc(-c3ccn[nH]3)c2n1 (stereo not given) + COc1cc2c(cc1O)CCNC21CSC2c3c(OC(C)=O)c(C)c4c(c3C(COC1=O)N1C(O)C3Cc5cc(C)c(OC)c(O)c5C(C21)N3C)OCO4
- IC50 (second compound 30 pM): < 31.6 nM
- IC50 (second compound 94.9 pM): < 31.6 nM
- IC50 (second compound 0.0003 µM): < 31.6 nM
- IC50 (second compound 0.000949 µM): < 31.6 nM
- IC50 (second compound 0.003 µM): < 31.6 nM
- viability, T/C [1]: 0.76%
- viability, T/C [2]: 0.64%
- viability, T/C [3]: 0.52%
- viability, T/C [4]: 0.4%
- viability, T/C [5]: 0.43%
- viability, T/C [6]: 0.49%
- viability, T/C [7]: 0.75%
- viability, T/C [8]: 0.74%
- viability, T/C [9]: 0.62%
- viability, T/C [10]: 0.38%
- viability, T/C [11]: 0.35%
- viability, T/C [12]: 0.42%
- viability, T/C [13]: 0.75%
- viability, T/C [14]: 0.89%
- viability, T/C [15]: 0.57%
- viability, T/C [16]: 0.78%
- viability, T/C [17]: 0.3%
- viability, T/C [18]: 0.36%
- viability, T/C [19]: 0.61%
- viability, T/C [20]: 0.63%
- viability, T/C [21]: 0.48%
- viability, T/C [22]: 0.81%
- viability, T/C [23]: 0.36%
- viability, T/C [24]: 0.71%
- viability, T/C [25]: 0.1%
- viability, T/C [26]: 0.1%
- viability, T/C [27]: 0.31%
- viability, T/C [28]: 0.1%
- viability, T/C [29]: 0.46%
- viability, T/C [30]: 0.54%

Structure (SMILES): COc1ccc([C@@H](O)c2cc(-c3ncnc4cc(N5CCOCC5)ccc34)c(F)cc2Cl)nn1 + COc1cc2c(cc1O)CCNC21CSC2c3c(OC(C)=O)c(C)c4c(c3C(COC1=O)N1C(O)C3Cc5cc(C)c(OC)c(O)c5C(C21)N3C)OCO4
- IC50 (second compound 30 pM): 583 nM
- IC50 (second compound 94.9 pM): < 31.6 nM
- IC50 (second compound 0.0003 µM): < 31.6 nM
- IC50 (second compound 0.000949 µM): < 31.6 nM
- IC50 (second compound 0.003 µM): < 31.6 nM
- viability, T/C [1]: 104%
- viability, T/C [2]: 91.7%
- viability, T/C [3]: 71.9%
- viability, T/C [4]: 33%
- viability, T/C [5]: 1.14%
- viability, T/C [6]: 0.29%
- viability, T/C [7]: 20.6%
- viability, T/C [8]: 12.6%
- viability, T/C [9]: 4.86%
- viability, T/C [10]: 0.5%
- viability, T/C [11]: 0.35%
- viability, T/C [12]: 0.2%
- viability, T/C [13]: 0.7%
- viability, T/C [14]: 0.77%
- viability, T/C [15]: 0.73%
- viability, T/C [16]: 0.58%
- viability, T/C [17]: 0.36%
- viability, T/C [18]: 0.11%
- viability, T/C [19]: 0.63%
- viability, T/C [20]: 0.64%
- viability, T/C [21]: 0.51%
- viability, T/C [22]: 0.16%
- viability, T/C [23]: 0.02%
- viability, T/C [24]: 0.11%
- viability, T/C [25]: 0.1%
- viability, T/C [26]: 0.11%
- viability, T/C [27]: 0.1%
- viability, T/C [28]: 0.1%
- viability, T/C [29]: 0.1%
- viability, T/C [30]: 0.16%

Structure (SMILES): O=C(c1cc(Cc2n[nH]c(=O)c3ccccc23)ccc1F)N1CCN(C(=O)C2CC2)CC1 + Cn1nnc2c(C(N)=O)ncn2c1=O
- IC50 (second compound 1 µM): < 94.9 nM
- IC50 (second compound 3.16 µM): < 94.9 nM
- IC50 (second compound 10 µM): < 94.9 nM
- IC50 (second compound 31.6 µM): < 94.9 nM
- IC50 (second compound 100 µM): < 94.9 nM
- viability, T/C (second compound 1 µM, first compound 0.0949 µM): 38.8%
- viability, T/C (second compound 1 µM, first compound 0.3 µM): 24.3%
- viability, T/C (second compound 1 µM, first compound 0.949 µM): 9.48%
- viability, T/C (second compound 1 µM, first compound 3 µM): 11.2%
- viability, T/C (second compound 1 µM, first compound 9.49 µM): 7.85%
- viability, T/C (second compound 1 µM, first compound 30 µM): 6.43%
- viability, T/C (second compound 3.16 µM, first compound 0.0949 µM): 39.2%
- viability, T/C (second compound 3.16 µM, first compound 0.3 µM): 16.4%
- viability, T/C (second compound 3.16 µM, first compound 0.949 µM): 12.2%
- viability, T/C (second compound 3.16 µM, first compound 3 µM): 8.6%
- viability, T/C (second compound 3.16 µM, first compound 9.49 µM): 8.67%
- viability, T/C (second compound 3.16 µM, first compound 30 µM): 6.42%
- viability, T/C (second compound 10 µM, first compound 0.0949 µM): 20.4%
- viability, T/C (second compound 10 µM, first compound 0.3 µM): 13.6%
- viability, T/C (second compound 10 µM, first compound 0.949 µM): 8.65%
- viability, T/C (second compound 10 µM, first compound 3 µM): 8.76%
- viability, T/C (second compound 10 µM, first compound 9.49 µM): 8.42%
- viability, T/C (second compound 10 µM, first compound 30 µM): 5.87%
- viability, T/C (second compound 31.6 µM, first compound 0.0949 µM): 9.76%
- viability, T/C (second compound 31.6 µM, first compound 0.3 µM): 10.7%
- viability, T/C (second compound 31.6 µM, first compound 0.949 µM): 8.79%
- viability, T/C (second compound 31.6 µM, first compound 3 µM): 8.73%
- viability, T/C (second compound 31.6 µM, first compound 9.49 µM): 8.23%
- viability, T/C (second compound 31.6 µM, first compound 30 µM): 6.62%
- viability, T/C (second compound 100 µM, first compound 0.0949 µM): 10.7%
- viability, T/C (second compound 100 µM, first compound 0.3 µM): 9.41%
- viability, T/C (second compound 100 µM, first compound 0.949 µM): 10.1%
- viability, T/C (second compound 100 µM, first compound 3 µM): 9.99%
- viability, T/C (second compound 100 µM, first compound 9.49 µM): 8.37%
- viability, T/C (second compound 100 µM, first compound 30 µM): 6.94%
